One test relates to fecal chymotrypsin. The test is described as follows: Fecal Chymotrypsin Test after secretin infusion in autistic children (Experiments 1 and 2). The format is in vivo. How it is done:
In this experiment, 16 children diagnosed as having autism were administered the following Fecal Chymotrypsin Test in accordance with an embodiment of the invention. First, approximately 2 grams of stool were collected from each child and placed in a sterile container (although it is to be understood that any quantity of stool may be collected, as 2 grams of stool is not a required amount). Each stool sample was then analyzed using, e.g., an enzymatic photospectrometry analysis as is known by those skilled in the art, to determine the level of fecal chymotrypsin in the stool. Although the enzymatic photospectrophotometry process is preferred, any suitable conventional method may be used for measuring the fecal chymotrypsin levels. The measured chymotrypsin levels of the 16 autistic children are illustrated in FIG. 13.
After determining the chymotrypsin levels of the stools, each of these levels were compared with threshold chymotrypsin levels to determine if the child was likely to benefit from secretin administration. By way of example, with the fecal chymotrypsin tests of the stool samples being performed at 30° C., normal levels of chymotrypsin are deemed to lie above 8.4 U/gram, whereas pathologically abnormal levels are deemed to lie below 4.2 U/gram. In addition, chymotrypsin levels between 8.4 U/gram and 4.2 U/gram are considered equivocal, and further testing of the individual's fecal chymotrypsin levels over a period of time should be performed.
(§1) For each of the 16 autistic children tested, a preferred secretin infusion process according to the present invention was performed involving the administering of 1 U/kg of body weight of Secretin-Ferring for a period of nine months at intervals of approximately 6 weeks. In addition, another CARS test was administered to each of the 16 autistic children 3 weeks post secretin administration to determine if their autism had changed post infusion.
A preferred secretin infusion process includes the initial step of prepping an arm of the candidate child with an IV injection of saline. A test dose of 1U of Secretin-Ferring is then administered to the child. Approximately one minute after infusion, the child is examined for signs of allergic reaction including rash, increased heart rate, and increase of blood pressure. […] Subsequently, each child receives a 1 U/kg of body weight infusion of Secretin-Ferring approximately every 6 weeks for 9 months. […]
In this experiment, 37 autistic children with abnormal fecal chymotrypsin levels were administered secretin over the course of 6 months using the secretin infusion process described above. Their fecal chymotrypsin (FC) levels were measured weekly using the fecal chymotrypsin test described above.

Another test deals with autistic children. Description: CARS (Childhood Autism Rating Scale) test pre- and post-secretin administration (Experiment 1). The format is in vivo. The following applies: 16 autistic children. As for the experimental part: Upon determining that a given child was likely to benefit from secretin administration based on the results of the fecal chymotrypsin test, the child was administered a CARS (Childhood Autism Rating Scale) test prior to being scheduled for secretin infusion.
as §1
A preferred secretin infusion process includes the initial step of prepping an arm of the candidate child with an IV injection of saline. A test dose of 1U of Secretin-Ferring is then administered to the child. Approximately one minute after infusion, the child is examined for signs of allergic reaction including rash, increased heart rate, and increase of blood pressure. […] Subsequently, each child receives a 1 U/kg of body weight infusion of Secretin-Ferring approximately every 6 weeks for 9 months. It is to be understood that any commercially available form of secretin may be used.

Test [1] concerns children diagnosed with Autism. The following applies: secretin given as diagnostic procedure during upper gastrointestinal endoscopy; Horvath et al. 1998; cited from earlier work.

No end group written: not given here.

In the case of “secretin (HSDGTFTSELSRLRDSARLQRLLQGLV; ends and bridges not checked; UniProt P63298 33-59, looked up) [a gastrointestinal peptide hormone]”, the “# Autistic Children w/ Equivocal FC levels” value in the test on fecal chymotrypsin (6 Months Post-Secretin Administration, of 37 autistic children (0 pre-secretin), equivocal between 8.4 and 4.2 U/gram) is 2. Further, the “# Autistic Children w/ normal FC levels” value in the test with fecal chymotrypsin (6 Months Post-Secretin Administration, of 37 autistic children (0 pre-secretin), normal above 8.4 U/gram) stood at 34. In the test with fecal chymotrypsin (6 Months Post-Secretin Administration, of 37 autistic children (37 abnormal pre-secretin), abnormal below 4.2 U/gram), the “# Autistic Children w/ Abnormal FC levels” value is 1. Moreover, the “fecal chymotrypsin level post-secretin administration compared with pre-secretin” value in the test on fecal chymotrypsin (each of 16 autistic children, approximately one week after first infusion of 1 U/kg Secretin-Ferring IV, FIG. 14 vs FIG. 13) is “increased”. Moreover, the “CARS fear component post-secretin” value in the test with autistic children (3 weeks post infusion) is listed as “increased”. Moreover, the “CARS component scores post-secretin (all except fear)” value in the test on autistic children (3 weeks post infusion, FIGS. 2-12) is recorded as “demonstrated improvement”. For the same substance, the “overall CARS scores post-secretin vs pre-secretin” value in the test on autistic children (approximately 3 weeks after first secretin administration, FIG. 1) is on record as “overall decrease”. In test [1], the “symptoms associated with Autism after secretin administration” value is listed as “ameliorating the symptoms associated with Autism”.

Values taken from patent publication US20040071683A1, “Methods for treating pervasive development disorders” (priority 1999, published 2004).
